According to ChEMBL document CHEMBL1201862, “PubChem BioAssay data set” (2004):
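Results reflect a 48-hour exposure of cells in 96-well plates to compound at five concentrations. GI50: concentration for 50% inhibition of growth.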 Calls of active or inactive are those of the source. Rule as the data show it: active = GI50 up to about 1.1 µM and inactive = higher.

Columns and labels:
Assay in all cases: NCI tumour cell line growth inhibition, 48 h
MDA-MB-435 = tested on: MDA-MB-435
OVCAR-4 = tested on: OVCAR-4
UO-31 = tested on: UO-31
DU-145 = tested on: DU-145
SNB-75 = tested on: SNB-75
SK-MEL-28 = tested on: SK-MEL-28
HOP-92 = tested on: HOP-92
SN12C = tested on: SN12C
IGROV-1 = tested on: IGROV-1
ACHN = tested on: ACHN
A498 = tested on: A498
RPMI-8226 = tested on: RPMI-8226
786-0 = tested on: 786-0
SF-539 = tested on: SF-539
COLO 205 = tested on: COLO 205
KM12 = tested on: KM12
OVCAR-5 = tested on: OVCAR-5
M14 = tested on: M14
A549 = tested on: A549
NCI-H226 = tested on: NCI-H226

Measured: GI50

Cc1cc(C(C)(C)C)cc(CNC2CCCCC2)c1O
inactive: MDA-MB-435 19.5 µM | OVCAR-4 19.5 µM | UO-31 14.9 µM | DU-145 21.3 µM | SNB-75 12.2 µM | SK-MEL-28 16.7 µM | HOP-92 15.5 µM | SN12C 15.8 µM | IGROV-1 13.8 µM | ACHN 17.1 µM | A498 16.6 µM | RPMI-8226 17.5 µM | 786-0 16.2 µM | SF-539 18.2 µM | COLO 205 17.3 µM | KM12 19.9 µM | OVCAR-5 16.2 µM | M14 15.7 µM | A549 18.4 µM

COc1cc(OC)c2c(=O)c3cccc(C)c3n(C)c2c1
inactive: MDA-MB-435 50.7 µM | OVCAR-4 64 µM | DU-145 57.3 µM | SNB-75 61.5 µM | SK-MEL-28 50.1 µM | HOP-92 83.6 µM | SN12C > 100 µM | IGROV-1 > 100 µM | ACHN 51.3 µM | A498 > 100 µM | NCI-H226 > 100 µM | RPMI-8226 17.9 µM | 786-0 > 100 µM | SF-539 68.5 µM | COLO 205 67 µM | KM12 80 µM | OVCAR-5 > 100 µM | M14 44 µM | A549 83.2 µM

O=[N+]([O-])c1cc(F)ccc1Sc1ccccc1
inactive: MDA-MB-435 > 10 µM | OVCAR-4 > 10 µM | DU-145 > 10 µM | SNB-75 > 10 µM | SK-MEL-28 > 10 µM | HOP-92 > 10 µM | SN12C > 10 µM | IGROV-1 > 10 µM | ACHN > 10 µM | A498 > 10 µM | NCI-H226 > 10 µM | RPMI-8226 > 10 µM | 786-0 > 10 µM | SF-539 > 10 µM | COLO 205 > 10 µM | KM12 > 10 µM | OVCAR-5 > 10 µM | M14 > 10 µM | A549 > 10 µM

Cn1c2c(c3ccccc31)CCN1OCC=C[C@@H](C(=O)O)[C@@H]21
inactive: MDA-MB-435 > 100 µM | OVCAR-4 > 100 µM | UO-31 51.3 µM | DU-145 > 100 µM | SNB-75 82 µM | SK-MEL-28 > 100 µM | HOP-92 17.9 µM | SN12C > 100 µM | IGROV-1 > 100 µM | ACHN > 100 µM | A498 > 100 µM | NCI-H226 > 100 µM | 786-0 > 100 µM | SF-539 > 100 µM | COLO 205 > 100 µM | KM12 > 100 µM | OVCAR-5 > 100 µM | M14 > 100 µM | A549 > 100 µM

CCSC1=N/C(=C\c2ccccc2O)C(Nc2ccc(C)cc2)=N1
inactive: MDA-MB-435 34.4 µM | UO-31 > 100 µM | DU-145 90.2 µM | SNB-75 46.1 µM | SK-MEL-28 51.1 µM | HOP-92 36.1 µM | SN12C 66.7 µM | IGROV-1 32.8 µM | ACHN 83.6 µM | A498 > 100 µM | NCI-H226 50.5 µM | RPMI-8226 > 100 µM | 786-0 91.6 µM | SF-539 75 µM | COLO 205 > 100 µM | KM12 24.5 µM | OVCAR-5 > 100 µM | M14 48.8 µM | A549 47.4 µM

Cc1ccc2c(c1)CC1(C2=O)[C@H](c2ccccc2)C2C(=O)c3ccc(C)cc3C2[C@H]1c1ccccc1 (some centres not stated)
inactive: MDA-MB-435 > 100 µM | OVCAR-4 > 100 µM | UO-31 > 100 µM | DU-145 > 100 µM | SNB-75 > 100 µM | SK-MEL-28 > 100 µM | HOP-92 > 100 µM | SN12C > 100 µM | IGROV-1 > 100 µM | ACHN > 100 µM | A498 > 100 µM | NCI-H226 > 100 µM | 786-0 > 100 µM | SF-539 > 100 µM | COLO 205 > 100 µM | KM12 > 100 µM | OVCAR-5 > 100 µM | M14 > 100 µM | A549 > 100 µM

Cc1c[n+]([O-])c2ccccc2[n+]1[O-]
inactive: MDA-MB-435 > 100 µM | OVCAR-4 > 100 µM | UO-31 > 100 µM | DU-145 > 100 µM | SNB-75 > 100 µM | SK-MEL-28 > 100 µM | HOP-92 > 100 µM | SN12C > 100 µM | IGROV-1 > 100 µM | ACHN > 100 µM | A498 > 100 µM | RPMI-8226 > 100 µM | 786-0 > 100 µM | SF-539 > 100 µM | COLO 205 > 100 µM | KM12 > 100 µM | OVCAR-5 > 100 µM | M14 > 100 µM | A549 > 100 µM

CCCC1C(C#N)(C#N)C(C#N)=C(N)C1(C)C(C)=O (configuration not stated)
inactive: MDA-MB-435 > 100 µM | UO-31 > 100 µM | DU-145 > 100 µM | SNB-75 4.42 µM | HOP-92 36.3 µM | SN12C > 100 µM | IGROV-1 > 100 µM | ACHN > 100 µM | A498 > 100 µM | NCI-H226 43.7 µM | RPMI-8226 > 100 µM | 786-0 53.3 µM | SF-539 > 100 µM | COLO 205 65 µM | KM12 > 100 µM | OVCAR-5 > 100 µM | M14 > 100 µM | A549 > 100 µM

CC1C(=O)OC2CC[N+]3([O-])CC=C(COC(=O)C(C)(O)C1(C)O)C23 (configuration not stated)
inactive: MDA-MB-435 > 100 µM | OVCAR-4 > 100 µM | DU-145 > 100 µM | SNB-75 > 100 µM | SK-MEL-28 > 100 µM | HOP-92 > 100 µM | SN12C > 100 µM | IGROV-1 > 100 µM | ACHN > 100 µM | A498 > 100 µM | NCI-H226 > 100 µM | RPMI-8226 > 100 µM | 786-0 > 100 µM | SF-539 > 100 µM | COLO 205 > 100 µM | KM12 > 100 µM | OVCAR-5 > 100 µM | M14 > 100 µM | A549 > 100 µM

CC(C)(C)OC(=O)NCC(C#N)CNC(=O)OC(C)(C)C
inactive: MDA-MB-435 > 100 µM | OVCAR-4 > 100 µM | UO-31 > 100 µM | DU-145 > 100 µM | SK-MEL-28 > 100 µM | HOP-92 > 100 µM | SN12C > 100 µM | IGROV-1 > 100 µM | ACHN > 100 µM | A498 > 100 µM | NCI-H226 > 100 µM | RPMI-8226 > 100 µM | 786-0 > 100 µM | SF-539 > 100 µM | COLO 205 > 100 µM | KM12 > 100 µM | OVCAR-5 > 100 µM | M14 > 100 µM | A549 > 100 µM

CCCCn1c(O)nc2c(N)ncnc21
inactive: MDA-MB-435 > 100 µM | OVCAR-4 > 100 µM | UO-31 > 100 µM | DU-145 > 100 µM | SNB-75 > 100 µM | SK-MEL-28 > 100 µM | HOP-92 > 100 µM | SN12C > 100 µM | IGROV-1 > 100 µM | ACHN > 100 µM | A498 > 100 µM | NCI-H226 > 100 µM | 786-0 > 100 µM | SF-539 > 100 µM | COLO 205 > 100 µM | OVCAR-5 > 100 µM | M14 > 100 µM | A549 > 100 µM
